Results reported in patent US6229029A, “11β-aryl substituted 14,17-ethanoestratriens, method for the production of these compounds and their use in the production of medicaments” (Schering Aktiengesellschaft, priority 1997, dated 2001).

How the values were obtained:
human estrogen receptor = molecular target: T1, human estrogen receptor (Homo sapiens, UniProt P03372); test: Transactivation assay in HeLa cells (antiestrogenic action, vit-TK-CAT reporter); assay type: cell-based; conditions: in the presence of 0.1 nM estradiol, read-out: Antagonism IC50, HELA
T1 construct: expressed in transfected cells; host or cells: HeLa cells
T1 sequence (P03372 1-595): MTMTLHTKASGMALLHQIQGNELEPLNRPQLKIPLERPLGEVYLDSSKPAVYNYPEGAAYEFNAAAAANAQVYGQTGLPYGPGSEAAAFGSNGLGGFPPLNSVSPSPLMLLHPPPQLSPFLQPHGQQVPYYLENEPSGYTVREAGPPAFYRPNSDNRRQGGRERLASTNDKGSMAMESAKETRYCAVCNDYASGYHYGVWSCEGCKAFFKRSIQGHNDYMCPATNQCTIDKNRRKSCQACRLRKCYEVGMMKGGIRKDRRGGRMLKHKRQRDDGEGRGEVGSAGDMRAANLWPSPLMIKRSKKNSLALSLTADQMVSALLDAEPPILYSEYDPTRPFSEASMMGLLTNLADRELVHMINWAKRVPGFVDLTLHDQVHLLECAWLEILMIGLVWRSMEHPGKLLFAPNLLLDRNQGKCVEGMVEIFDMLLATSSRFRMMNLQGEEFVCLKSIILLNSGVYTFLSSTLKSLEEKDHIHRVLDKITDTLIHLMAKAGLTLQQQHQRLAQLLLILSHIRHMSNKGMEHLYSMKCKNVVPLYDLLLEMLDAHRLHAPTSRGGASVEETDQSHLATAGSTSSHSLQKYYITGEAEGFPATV

uterus of infant rats [1] = test: Uterus growth test on infant rats (estrogenic action); assay type: in vivo, rat; conditions: for Epithelial Height % E2 / Uterus Weight % E2: 3 days, infant rats
Source text: (§1) The influence of the compounds according to the invention on the uterus was examined in the uterus growth test (estrogenic action) and in the anti-uterus growth test (antiestrogenic action), both performed on infant rats.
In infant animals, both uterus and vagina show one of the estrogenic activity-dependent weight increases in their treatment with an estrogenically active substance. In the uterus, under estrogenic action, moreover, it results in a proliferation and height increase of the luminal epithelium.
Immature, normal rats (body weight 40-50 g) receive the substance s.c. over 3 days (d1-d3). On day 4 (d4), the animals are sacrificed with CO2. The uteri are prepared outside and weighed. A piece of the uterus, preferably a uterine horn, is set in formaldehyde for the histological evaluation and embedded in paraffin. The stimulation of the organ weights (relative to mg/100 g of body weight) and the epithelial height are indicated in percentage stimulation in comparison to the reference compound 17β-estradiol. (Substitution dose E2 0.3 μg/animal).

uterus of infant rats [2] = test: Anti-uterus growth test in infant rats (antiestrogenic action); assay type: in vivo, rat; conditions: with 0.3 μg/animal/day 17β-estradiol
Source text: as §1
The uterus of infant estrogen-substituted rats can be used as a test model to detect a direct action of substances with antiestrogenic properties. The parameter of the estrogenic action is the uterus growth that is induced by estradiol in infant rats and that is inhibited by simultaneous administration of a substance with antiestrogenic action.
The test substances are treated s.c. on 3 successive days (d1-d3) in combination with a substitution dose of 0.3 μg/animal/day of 17β-estradiol. As a positive control, 17β-estradiol alone is used; the vehicle group is used as a negative control. On day 4 (d4), the animals are sacrificed, uteri and vaginae are prepared outside and weighed. The organ weights are converted into mg/100 g of body weight, and then the mean and the standard deviation for each dosage are calculated. The inhibition of the uterus or vaginal growth that is induced by 17β-estradiol is indicated in % as inhibition.

[3] = test system: bone (distal femur / proximal tibia) of ovariectomized rats; test: Bone studies in ovariectomized rats: bone density by pQCT; assay type: in vivo, rat; conditions: for % of Action of E2 (bone density femur) / Bone Density Femur: Table 4, distal femur; for % of Action of E2 (bone density femur) / Bone Density Femur / Bone Density / % of Action of E2 (bone density): 28 days; for Bone Density / % of Action of E2 (bone density): Table 5, proximal tibia
[4] = test system: uterus of ovariectomized rats; test: Uterus weight in ovariectomized rats of the bone studies; assay type: in vivo, rat
Procedure: 3-month-old female rats are ovariectomized and treated once daily with the test compound immediately after the operation for 28 days. The administration is done subcutaneously in castor oil/benzyl benzoate or arachis oil/ethanol. The animals are sacrificed on the day after the last administration, and femurs, tibiae and uteri are removed. The uteri are weighed, fixed and worked up for histological studies. The determination of the bone density is carried out ex vivo on prepared long bones with use of pQCT (Quantitative Computer Tomography). The measurements are performed at a distance of 5-7 mm from the ball of the joint on the distal femur or the proximal tibia.

bone / uterus of rats = test: Dissociation of bone action/uterus action (FIG. 7); assay type: in vivo, rat; conditions: bone action vs uterus epithelial height, relative to 17β-estradiol
Source text: There, for compounds A, B and V, their bone-protecting actions are compared to the action of estrogen on the uterus (parameter: uterus epithelial height) as a function of dosage, in each case relative to the action of 17β-estradiol.

C[C@]12C[C@H](c3ccc(OCCCCCS(=O)(=O)Cc4ccccn4)cc3)[C@@H]3c4ccc(O)cc4CC[C@H]3[C@]13CC[C@@]2(O)CC3 [Compound A]
IC50 (human estrogen receptor): 0.4 nM | Epithelial Height % E2 (uterus of infant rats [1]; 0.01 mg/kg s.c.): 6 % E2 | Uterus Weight % E2 (uterus of infant rats [1]; 0.01 mg/kg s.c.): 2 % E2 | Epithelial Height % E2 (uterus of infant rats [1]; 0.1 mg/kg s.c.): -16 % E2 | Uterus Weight % E2 (uterus of infant rats [1]; 0.1 mg/kg s.c.): 0 % E2 | Epithelial Height % E2 (uterus of infant rats [1]; 1 mg/kg s.c.): -8 % E2 | Uterus Weight % E2 (uterus of infant rats [1]; 1 mg/kg s.c.): -7 % E2 | Epithelial Height % E2 (uterus of infant rats [1]; 10 mg/kg s.c.): -22 % E2 | Uterus Weight % E2 (uterus of infant rats [1]; 10 mg/kg s.c.): -15 % E2 | estrogenic action in the uterus (in words) (uterus of infant rats [1]; s.c., uterus growth test): without any estrogenic action in the uterus | Uterus Weight % of Inhibition (uterus of infant rats [2]; 0.1 mg/kg s.c.): 33% | Uterus Weight % of Inhibition (uterus of infant rats [2]; 1 mg/kg s.c.): 88% | Uterus Weight % of Inhibition (uterus of infant rats [2]; 10 mg/kg s.c.): 121% | % of Action of E2 (bone density femur) ([3]; 0.1 μg/animal/day s.c.): 14% | Bone Density Femur ([3]; 0.1 μg/animal/day s.c.): 296.4 mg Ca/ccm | % of Action of E2 (bone density femur) ([3]; 1 μg/animal/day s.c.): 31% | Bone Density Femur ([3]; 1 μg/animal/day s.c.): 309.6 mg Ca/ccm | % of Action of E2 (bone density femur) ([3]; 10 μg/animal/day s.c.): 60% | Bone Density Femur ([3]; 10 μg/animal/day s.c.): 331.3 mg Ca/ccm | % of Action of E2 (bone density femur) ([3]; 100 μg/animal/day s.c.): 50% | Bone Density Femur ([3]; 100 μg/animal/day s.c.): 324.1 mg Ca/ccm | Bone Density ([3]; 100 μg/animal/day s.c.): 361.8 mg Ca/ccm | % of Action of E2 (bone density) ([3]; 500 μg/animal/day s.c.): 49% | Bone Density ([3]; 500 μg/animal/day s.c.): 336.3 mg Ca/ccm | % of Action of E2 (bone density) ([3]; 2000 μg/animal/day s.c.): 65% | Bone Density ([3]; 2000 μg/animal/day s.c.): 348.8 mg Ca/ccm | effect of dose increase on bone action (in words) ([3]; above 100 μg/animal/day, proximal tibia): can no longer be increased by increasing the dose | protective action in comparison to 17β-estradiol ([3]; dose range between 10 and 100 μg/animal/day s.c.): 50-60% | degradation of bone density after ovariectomy (in words) ([3]; ovariectomized rats, 0.1-100 μg/animal/day): prevented or inhibited | dose with which an action of about 80% of 17β-estradiol on trabecular bone is achieved ([3]; proximal tibia, s.c.): 100 μg/animal/day | potency relative to comparison compound V, bone-protecting action ([3]; proximal tibia, vs compound V): 3 factor | stimulation of uterus weight (in words) ([4]; FIG. 3, test of Table 4, 0.1-100 μg/animal/day): stimulates the uterus weight, but at most does so marginally | stimulation of uterus weight (in words) ([4]; FIG. 5, test of Table 5, all tested dosages 100-2000 μg/animal/day): stimulates the uterus weight only marginally in all tested dosages | dissociation of bone-protecting action from estrogen action on the uterus (in words) (bone / uterus of rats): most dissociated
